Earlier results as cited in US20130217055A1, “METHOD FOR PREDICTING TYROSINE KINASE INHIBITOR (TKI) RESISTANCE IN PATIENTS SUFFERING FROM CHRONIC MYELOGENOUS LEUKEMIA (CML)” (PamGene B.V., priority 2010, published 2013).

System: CML patients

Cc1ccc(NC(=O)c2ccc(CN3CCN(C)CC3)cc2)cc1Nc1nccc(-c2cccnc2)n1 [Imatinib]
complete or nearly complete cytogenetic remission (patients treated in chronic phase CML): up to 80% of patients | CML patients treated that are or become resistant to the treatment (primary or secondary resistance): about 20%
